Target: T1, albumin (Homo sapiens, UniProt P02768)
T1 construct: commercial pooled healthy human plasma diluted to 55% by PBS; from tissue; host or cells: commercial pooled healthy human plasma
Assay: Abundance of albumin in protein corona proteome by LC-MS/MS
Settings: PtdChos 1000 μg/ml; plasma alone over 81%
Experimental: For protein corona formation in the presence of small molecules, commercial pooled healthy human plasma diluted to 55% by PBS was first incubated with the individual small molecules or a combination of small molecules at varying concentrations (i.e., 10, 100, and 1,000 μg/ml) for 1 hour at 37° C., allowing the small molecules to interact with the biological matrix. The small molecule combinations included each of the four small molecules (glucose, triacylglycerols, diacylglycerols, and PtdChos for combination 1; PE, PtdIns, IMP, and vitamin B complex for combination 2) at the given concentration. […]
Initial processing: NPs coated with protein corona were first washed with PBS and then resuspended in 30 μl of PBS, enriched with 15 mM phosphate (pH 7.4). The bound total protein content was estimated to be around 1 μg per sample, determined via a Micro BCA™ assay (Thermo Scientific™). […]
LC-MS/MS Analysis: Dried samples were reconstituted with 1 μg of peptides in 25 μl of liquid chromatography (LC) loading buffer (3% acetonitrile (ACN), 0.1% trifluoroacetic acid (TFA)) and analyzed using LC-MS/MS. A 60-minute gradient was applied in the label-free quantification (LFQ) mode, with 5 μl aliquots injected in triplicate. Control samples (55% human plasma) were prepared with 8 μg of peptides in 200 μl of loading buffer and analyzed similarly. […]

T1 sequence (P02768 25-609): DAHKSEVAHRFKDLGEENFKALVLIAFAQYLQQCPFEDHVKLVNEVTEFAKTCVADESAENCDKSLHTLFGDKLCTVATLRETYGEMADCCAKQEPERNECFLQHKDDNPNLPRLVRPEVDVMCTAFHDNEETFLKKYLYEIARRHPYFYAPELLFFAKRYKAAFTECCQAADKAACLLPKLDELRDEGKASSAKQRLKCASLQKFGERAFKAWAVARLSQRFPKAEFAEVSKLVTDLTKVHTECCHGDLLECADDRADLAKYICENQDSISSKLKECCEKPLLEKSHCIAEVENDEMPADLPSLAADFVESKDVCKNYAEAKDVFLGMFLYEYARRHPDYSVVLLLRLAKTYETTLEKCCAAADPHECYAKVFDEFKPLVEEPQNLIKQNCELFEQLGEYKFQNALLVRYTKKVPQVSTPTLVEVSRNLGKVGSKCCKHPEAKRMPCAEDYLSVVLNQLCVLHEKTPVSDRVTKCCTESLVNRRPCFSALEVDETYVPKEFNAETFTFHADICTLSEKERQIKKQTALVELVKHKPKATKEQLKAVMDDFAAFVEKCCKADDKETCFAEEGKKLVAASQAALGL

phosphatidylcholine [PtdChos] was tested, and the “albumin representation (share of proteins)” value was “around 17%”.
